Results from PubChem BioAssay (NCI).
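Five compound concentrations were applied to cells in 96-well plates for 48 hours; endpoints were derived by simple linear interpolation of the resulting dose-response curve. At the GI50, growth is halved. At the TGI there is no net growth.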

Tests used:
Assay in all cases: DTP human tumour cell line panel, 48 h
UO-31 renal = system: UO-31 renal
MCF7 breast = system: MCF7 breast
SF-268 CNS = system: SF-268 CNS
BT-549 breast = system: BT-549 breast
SK-OV-3 ovarian = system: SK-OV-3 ovarian
TK-10 renal = system: TK-10 renal
KM12 colon = system: KM12 colon
IGROV1 ovarian = system: IGROV1 ovarian
NCI-H460 lung = system: NCI-H460 lung
SF-295 CNS = system: SF-295 CNS

Row | SMILES | GI50 (UO-31 renal) [µM] | TGI (UO-31 renal) [µM] | GI50 (MCF7 breast) [µM] | TGI (MCF7 breast) [µM] | GI50 (SF-268 CNS) [µM] | TGI (SF-268 CNS) [µM] | GI50 (BT-549 breast) [µM] | TGI (BT-549 breast) [µM] | GI50 (SK-OV-3 ovarian) [µM] | TGI (SK-OV-3 ovarian) [µM] | GI50 (TK-10 renal) [µM] | TGI (TK-10 renal) [µM] | GI50 (KM12 colon) [µM] | TGI (KM12 colon) [µM] | GI50 (IGROV1 ovarian) [µM] | TGI (IGROV1 ovarian) [µM] | GI50 (NCI-H460 lung) [µM] | TGI (NCI-H460 lung) [µM] | GI50 (SF-295 CNS) [µM] | TGI (SF-295 CNS) [µM]
1 | Cc1cc(C)c(C(=O)CC(=O)c2cccnc2)c(C)c1 | 4.63 | > 100 | 5.96 | > 100 | 10.5 | > 100 | 2.25 | 33.9 | 9.04 | > 100 | 9.77 | > 100 | 8.01 | > 100 | 4.39 | > 100 | 3.39 | 82.9 | 2.78 | 83.5
2 | Cc1ccc(C(=NN=C(N)N)c2ccc(C)cc2)cc1 | 1.73 | 9.76 | 0.396 | 8.53 | 0.636 | 6.57 | 2.21 | 8.69 | 1.16 | 10.2 | 0.876 | 11.4 | 0.327 | 1.33 | 0.644 | 7.64 | 0.359 | 1.33 | 0.284 | 0.945
3 | O=C(Nc1ccc(Cl)cc1)c1cc(-c2ccc(F)cc2)c2sc(=O)[nH]c2n1 | 1.61 | 3.89 | 1.31 | 11.3 | 2.59 | 17.2 | 1.73 | 6.88 | 1.57 | 5.41 | 1.88 | 4.94 | 1.81 | 6.04 | 1.78 | 7.06 | 1.73 | 4.29 | 1.1 | 3.8
4 | COc1ccc(C(=O)c2cc(C)c(OC)c(C)c2)c(OC)c1N(C(=O)C(Cl)Cl)C(=O)C(Cl)Cl | 0.0736 | > 47.5 | 0.0811 | > 100 | 1.01 | > 100 | 0.0607 | 2.75 | 0.052 | > 100 | > 79.8 | > 100 | 0.0461 |  | 0.101 | > 100 | 0.0381 | 15.7 | 0.0323 | > 100
5 | CC(C)c1ccc(C(=O)Nc2sc3c(c2C(N)=O)CCC(=O)C3)cc1 | 0.267 | 1.1 | 0.466 | 5.16 | 0.571 | 3.45 | 0.352 | 1.94 | 2.62 | 8.02 | 1.29 | 3.81 | 0.45 | 1.85 | 0.491 | 2.14 | 0.849 | 3.73 | 1.42 | 3.61
6 | CC(=O)OC1CC(O)C23COC(O)C1(C)C2CC(O)C1(C)C3C(=O)C(O)C2(C)C(c3ccoc3)CC3OC321 (stereo not given) | 3.08 | > 41.4 | > 100 | > 100 | 2.2 | > 100 | 0.071 | > 100 | > 100 | > 100 | > 100 | > 100 | < 0.01 | > 100 | 0.377 | > 100 | < 0.0486 | > 100 | 0.0522 | 
7 | CCC#CC[C@H]1C/C=C2/C(=O)C=C[C@@H]2C/C=C\CCCC(=O)O1 | 0.73 | 1.56 | 0.203 | 5.82 | 1.23 | 4.55 | 1.11 | 3.27 | 2.36 | 7.74 | 1.74 | 4.59 | 0.848 | 2.16 | 1.47 | 4.33 | 1.14 | 3.65 | 1.43 | 4.36
8 | COC(=O)Nc1nc2ccc(Oc3ccc(NC(=O)Nc4ccccc4)cc3)cc2[nH]1 | 1.65 | > 25 | 0.0932 |  | 0.267 | > 14.5 | 1.61 | 11.8 | 0.0696 | 0.3 | 0.787 | 9.74 | 0.106 | 4.87 | 0.665 | > 10.9 | 0.129 | 2.71 | 0.121 | 2.23
9 | O=C(N/N=C/c1cccc(O)c1O)c1ccccc1 | 0.434 | 14 | 0.357 | > 100 | 0.567 | > 100 | 1.84 | > 73 | 3.68 | > 100 | 2.57 | > 69.1 | 0.769 | > 100 | 3.49 | > 100 | 0.878 | > 100 | 2.28 | > 100
10 | CCOC(=O)Sc1ncnc2nc[nH]c12 | 4.14 | > 100 | 0.616 | > 100 | 3.89 | > 100 | 9.92 | > 100 | 0.484 | > 100 | 0.547 | > 100 | 4.03 | > 100 | 6.69 | > 100 | 5.75 | > 100 | 2.43 | > 100
11 | COc1ccc(C(=O)COc2cccc(/C=C3\COc4ccc5ccccc5c4C3=O)c2)cc1 | 20.4 | > 100 | 2.48 | > 100 | 7.83 | > 100 | 8.44 | > 100 | 82.2 | > 100 | 24.2 | > 100 | 3.11 | 24.6 | 17.4 | > 100 | 6.44 | > 100 | 2.87 | 63.6
12 | CCc1[nH]c(=O)nc(N)c1-c1ccc(N2CCCCC2)c([N+](=O)[O-])c1 |  | > 100 |  | > 100 |  | > 100 |  | > 100 |  | > 100 |  | > 100 |  | > 100 |  | > 100 |  | > 100 |  | > 100
13 | NC(=S)N/N=C/c1ccc(OC(=O)COc2ccc(Cl)cc2)cn1 | 3.24 | 21.5 | 3.71 | > 100 | 2.28 | 21.8 | 4.74 | > 100 | 40 | > 100 | 30 | > 100 | 3.18 | > 100 | 16.4 | > 100 | 3.91 | 18.9 | 20.8 | > 100
14 | COc1cc(C2=NN(C(C)=O)C(c3ccc(OC(C)=O)cc3OC(C)=O)O2)c(OC(C)=O)c2ccccc12 (stereo not given) | 0.38 | 7.12 | 2.73 | 16.1 | 0.465 | > 24.4 | 1.87 | 47.6 | 0.649 | 19.7 | 1.31 | 35.1 | 1.02 | 27.3 | 0.82 | 42.6 | 1.15 | > 33.4 | 1.68 | 23.8
15 | CC(=O)OC1Oc2ccccc2-c2oc(=O)c(-c3cc4ccc(N(C)C)cc4oc3=O)cc21 (stereo not given) | 16.9 | 48.8 | 10.2 | 29.8 | 10.6 | 32.2 | 3.67 | 20.7 | 13 | 45.5 | 5.4 | 19.5 | 13.7 | 30.6 | 14.6 | 36.9 | 11.8 | 33.1 | 4.57 | 21
16 | O=C1NC(=O)c2ccc([N+](=O)[O-])c3cccc1c23 |  | 29.8 |  | 27.9 |  | 62 |  | 33.7 |  | 50.9 |  | 45.8 |  |  |  | 31 |  | 29.7 |  | 32.8
17 | COc1ccc(C(C)c2cc3c(cc2OC)OCO3)cc1 (stereo not given) |  | > 100 |  | 40.6 |  | > 56.2 |  | > 100 |  | 27 |  | > 100 |  | > 41 |  | 7.47 |  | 4.69 |  | 
18 | O=C(c1cccc(O)c1O)c1cn(Cc2ccc(F)cc2)c2cccc(O)c12 | 1.14 | 5.24 | 2.14 | 13.1 | 3.51 | 16.2 | 7.72 | 21.6 | 4.49 | 16 | 7.01 | 26.8 | 5.46 | 19.4 | 0.833 | 7.85 | 2.01 | 11 | 5.65 | > 46.5
19 | CCN(CC)c1ccc(C(=N)c2ccc(N(CC)CC)cc2)cc1 | 0.557 | 2.64 | 0.349 | 1.78 | 0.602 | 2.67 | 1.16 | 5.78 | 0.854 | 2.89 | 0.896 | 4.29 | 0.366 | 1.52 | 0.565 | 4.43 | 0.411 | 1.56 | 0.438 | 2.02
20 | Fc1cc(F)c(COc2cc(Cn3cnc4c(Cl)nc(Cl)nc43)ccc2C23CC4CC(CC(C4)C2)C3)cc1F | 17.8 | 31.6 | 11 | 27.5 | 16.4 | 33.1 | 11 | 24.5 | 22 | 43.3 | 17.1 | 31.1 | 17.2 | 32.6 | 13.2 | 27.5 | 19.4 | 37.5 | 18 | 34
21 | CN(C)c1ccc(N)cc1 | 3.97 | 16.3 | 2.83 | 9.12 | 6.96 | 32.7 | 4.7 | 16.1 | 13.1 | 58 | 3.05 | 18.5 | 3.25 | 12.2 | 4.04 | 23.8 | 3.09 | 13 | 2.37 | 6.48
22 | CC/C=C\C[C@@H]1C/C=C2/C(=O)C=C[C@H]2C/C=C\CCCC(=O)O1 | 0.929 | 2.23 | 0.356 | 2.12 | 1.34 | 3.67 | 0.89 | 2.23 | 2.49 | 7.94 | 1.48 | 3.14 | 0.262 | 0.767 | 0.91 | 3.93 | 2.67 | 7.45 | 1.18 | 2.73
23 | COc1cc(NC(=O)c2cc(O)c(CC=C(C)C)c(O)c2)cc2c1O[C@]1(C)CC[C@@H](O)C(C)(C)[C@H]1C2 | 2.42 | 8.18 | 2.1 | 15.4 | 4.65 | 72.6 | 0.819 | 13.5 | 4.72 | 28.8 | 9.59 | 55.6 | 4.12 | 18.4 | 7.51 | 54.9 | 3.65 | 19.2 | 1.25 | 3.85
24 | CCS(=O)(=O)c1ccc(OC)c(Nc2ncc(-c3cccc(OC)c3)o2)c1 | 3.4 | 13.8 | > 18.3 | > 25 | 8.84 | > 25 | 14.6 | > 25 | 9.92 | > 25 | 6.5 | 18.6 | 1.06 | > 25 | 6.8 | > 20.7 | 11.9 | > 25 | 9.72 | > 25
25 | CN/N=C(/CCN1CCCC1)CC(c1ccccc1)c1c(O)c2ccccc2oc1=O (stereo not given) |  | > 100 |  | > 100 |  | > 100 |  | > 100 |  | > 100 |  | > 100 |  | > 100 |  | > 100 |  | > 100 |  | > 100
26 | CN(C)CCCn1c2c(c3ccccc3c1=O)C(=O)c1ccccc1-2 | 2.5 | 23.5 | 0.554 | 12.2 | 2.71 | 15.2 | 5.53 | 19.9 | 4.14 | 73.8 | 1.67 | 11.3 | 3.6 | 17.7 | 2.29 | > 100 | 0.52 | 10.5 | 1.12 | 3.74
27 | c1ccc(C2=NNC3c4ccccc4-c4ccccc4N3C2)cc1 (stereo not given) |  | > 100 |  | > 100 |  | > 100 |  | > 100 |  | > 100 |  | 91.7 |  | > 100 |  | > 100 |  | 53.3 |  | > 100
